# Tests used:
# [1] = target: T1, hIL-17A (Homo sapiens, UniProt Q16552); assay: Inhibition of hIL-17A-induced chemokine GROα/CXCL1 production in HT-29 cell; assay type: cell-based
# T1 construct: purchased R&D 317-ILB
# T1 sequence (Q16552 20-155 limits assumed): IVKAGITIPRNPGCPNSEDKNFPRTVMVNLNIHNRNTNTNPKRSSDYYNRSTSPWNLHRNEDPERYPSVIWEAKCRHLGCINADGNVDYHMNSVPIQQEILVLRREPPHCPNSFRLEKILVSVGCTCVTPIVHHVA
# Method: Human colorectal adenocarcinoma cell HT-29 was inoculated to a 96-well plate (5×10^4 for per well), and incubated at 37° C. on an incubator overnight. A mixture of 30 ng/mL hIL-17A protein (R&D, #317-ILB) with gradient concentrations of IL-17A small molecule inhibitors or with 0.3 μg/mL positive control IL-17A antibody (R&D, #AF-317-NA) was incubated for 1 h at 37° C., and added into the 96-well plate to incubated with HT-29 at 37° C. for 48 h. A level of GROα in a cell culture supernatant was then detected using an ELISA kit for GROα (Cisbio, #62HCXC1peg).
# Inhibitory effect of the compound prepared in Examples on hIL-17A-induced chemokine GROα/CXCL1 production in HT-29 cell was tested according to the methods of Experimental Examples 1 and 2. […] “-” indicated not tested. According to the results, the compounds provided herein have good human IL-17A inhibitory activity and can be effectively used in the treatment of diseases associated with abnormal hIL-17A activity.
# [2] = target: T2, human IL-17A (hIL-17A) (Homo sapiens, UniProt Q16552); assay: IL-17A enzyme-linked immunosorbent assay (competitive ELISA, receptor-ligand binding)
# T2 construct: purchased Sino Biological Inc. 12047-H07B
# T2 sequence (Q16552 24-155): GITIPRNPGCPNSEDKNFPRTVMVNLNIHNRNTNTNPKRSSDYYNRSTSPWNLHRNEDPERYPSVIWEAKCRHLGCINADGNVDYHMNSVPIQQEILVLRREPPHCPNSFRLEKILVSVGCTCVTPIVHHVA
# Method: The inhibition of receptor-ligand binding by human IL-17A (hIL-17A) inhibitors was detected by competitive ELISA. A 96-well plate was inoculated 0.2 μg/ml IL-17 (Sino Biological Inc. Cat #12047-H07B) for incubation at 37° C. for 30 min, 100 μL for per well. The 96-well plate was washed four times with phosphate buffered saline (PBS) containing Tween-20 (PBST, 0.05% Tween-20), 200 μL for per well each time. 200 μL of 5% skim milk were added into the 96-well plate for incubation on a shaker at 25° C. for 30 min. The 96-well plate was washed four times with PBST (0.05% Tween-20), and added with 89 μL of PBST and 1 μL of a compound to be measured (100×), in which a concentration the compound to be measured (100×) was 0.003 μM-30 μM. The mixture was mixed evenly and incubated at 25° C. for 10 min. The mixture was added with 10 μL of 16 nM IL-17R, followed by incubation at 25° C. for 30 min. After washing the 96-well plate 4 times, 100 μL of anti-Fc tag horseradish peroxidase (HRP) coupled antibody were added for incubation on a shaker at 25° C. for 30 min. After washing the 96-well plate 4 times, 100 μL of 3,3′,5,5′-tetramethylbenzidine (TMB) substrate solution were added to the 96-well plate for incubation away from light at 25° C. After addition of 20% HCl, an absorbance was measure by a microplate reader at 450 nm.
# The compounds prepared according to the above method were assayed for human IL-17A inhibitory activity.
# [3] = target: T3, hIL-17A protein (Homo sapiens, UniProt Q16552); assay: Binding to hIL-17A protein through surface plasmon resonance (SPR, Biacore 8K)
# T3 sequence (Q16552 24-155): T2 sequence (Q16552 24-155)
# Method: The binding of the compounds provided herein to the hIL-17A protein was tested using SPR, and analyzed using a Biacore 8K system. A positive compound was the compound of Example 32 in WO2020/127685A1.
# [4] = target: T4, hIL-17A/RA (Homo sapiens, UniProt Q16552); assay: Reversibility of binding by jump dilution ELISA (hIL-17A/hIL-17RA)
# T4 construct: biotin label (inferred from streptavidin-HRP detection)
# T4 sequence (Q16552 24-155): T2 sequence (Q16552 24-155)
# Method: The reversibility of the binding of the compounds in Examples to hIL-17A and the binding time of the compound-protein complex were qualitatively and quantitatively analyzed by jump dilution assay. The positive compound was the compound of Example 32 in WO2020/127685 A1. 7 nM hIL-17RA were inoculated to a 96-well plate (100 μL for per well), and incubated at 37° C. for 30 min. A blank group was 100 μL of coating buffer solution. After […] incubation at 4° C., the 96-well plate was washed with PBST (0.05% Tween-20) 4 times, 200 μL for per well each time. The 96-well plate was added with 200 μL 3% BSA (PBST diluted) and closed on a shaker at 37° C. for 30 min. […] The configured hIL7A was mixed with an equal volume of compound in a 200 ul centrifuge tube to obtain a protein-compound mixture. The protein-compound mixture was subjected to pre-incubation at room temperature for 15 min. The protein-compound mixture, positive control group and negative control group were diluted 200×. After closing, the 96-well plate was washed 4 times, and added with dilution 100 μL for per well to incubate at 25° C. for 28, 24, 5, 2 and 0 h. After washing the plate 4 times, 100 μL of Streptavidin-HRP coupled antibody diluted with 1% BSA was added and then incubated for 30 min on a shaker at 25° C. After washing the plate 4 times, 100 μL of TMB substrate solution were added, and incubated away from light for 5-15 min at 25° C. (depending on the color of the reaction). After addition of 20% HCl, an absorbance was measure by a microplate reader at 450 nm.
# [5] = compared with the positive compound
compound,measurement,setting,value
Cc1nonc1C(=O)N[C@H](C(=O)Nc1ccc(-c2c(C)n[nH]c2C)nc1)C1c2ccc(F)cc2OCC12CC2 (some centres unmarked) [Compound 27],IC50,[1],672 nM
same,IC50,[2],119 nM
Cc1n[nH]c(C)c1-c1ccc(NC(=O)[C@@H](NC(=O)c2ccnn2C)C2c3ccc(F)cc3CC23CC3)cn1 (some centres unmarked) [Compound 31],IC50,[1],872 nM
same,IC50,[2],72 nM
Cc1n[nH]c(C)c1-c1ccc(NC(=O)[C@@H](NC(=O)c2nonc2C(C)C)C2c3ccc(F)cc3OCC23CC3)cc1 (some centres unmarked) [Compound 28],IC50,[1],83 nM
same,IC50,[2],110 nM
Cc1n[nH]c(C)c1-c1ccc(NC(=O)[C@@H](NC(=O)OC2CC2)C2c3cc(F)c(F)cc3OCC23CC3)cn1 (some centres unmarked) [Compound 105],IC50,[1],943 nM
same,IC50,[2],81 nM
Cc1n[nH]c(C)c1-c1ccc(NC(=O)[C@@H](NC(=O)c2nonc2C(C)C)C2c3cc(F)c(F)cc3OCC23CC3)cc1 (some centres unmarked) [Compound 45],IC50,[1],50 nM
same,IC50,[2],125 nM
Cc1n[nH]c(C)c1-c1ccc(NC(=O)[C@@H](NC(=O)c2nonc2C(C)C)C2c3cc(F)c(F)cc3OCC23CC3)cn1 (some centres unmarked) [Compound 44],IC50,[1],336 nM
same,IC50,[2],122 nM
Cc1n[nH]c(C)c1-c1ncc(NC(=O)[C@@H](NC(=O)c2nonc2C2CC2)C2c3ccc(F)cc3OCC23CC3)cc1F (some centres unmarked) [Compound 91],IC50,[1],1080 nM
same,IC50,[2],67 nM
Cc1n[nH]c(C)c1-c1ccc(NC(=O)[C@@H](NC(=O)c2nonc2C2CC2)C2c3c(F)cc(F)cc3OCC23CC3)cc1 (some centres unmarked) [Compound 67],IC50,[1],557 nM
same,IC50,[2],577 nM
Cc1n[nH]c(C)c1-c1ccc(NC(=O)[C@@H](NC(=O)c2nonc2C(C)C)C2c3cc(F)cc(F)c3OCC23CC3)cc1 (some centres unmarked) [Compound 74],IC50,[1],609 nM
same,IC50,[2],413 nM
Cc1n[nH]c(C)c1-c1ncc(NC(=O)[C@@H](NC(=O)c2ccnn2C(C)C)C2c3cc(F)cc(F)c3OCC23CC3)cc1F (some centres unmarked) [Compound 72],IC50,[1],1810 nM
same,IC50,[2],343 nM
Cc1n[nH]c(C)c1-c1ccc(NC(=O)[C@@H](NC(=O)c2nonc2C2CC2)C2c3ccc(F)cc3OCC23CC3)cc1 (some centres unmarked) [Compound 94],IC50,[1],695 nM
same,IC50,[2],572 nM
COCc1[nH]nc(C)c1-c1ccc(NC(=O)[C@@H](NC(=O)c2nonc2C)C2c3ccc(F)c(F)c3OCC23CC3)cc1 (some centres unmarked) [Compound 85],IC50,[1],1220 nM
same,IC50,[2],133 nM
Cc1n[nH]c(C)c1-c1ncc(NC(=O)[C@@H](NC(=O)c2conc2C2CC2)C2c3cc(F)c(F)cc3OCC23CC3)cc1F (some centres unmarked) [Compound 96],IC50,[1],134 nM
same,IC50,[2],125 nM
Cc1n[nH]c(C)c1-c1ccc(NC(=O)[C@@H](NC(=O)c2nonc2C(C)C)C2c3ccc(F)c(F)c3OCC23CC3)cn1 (some centres unmarked) [Compound 63],IC50,[1],605 nM
same,IC50,[2],156 nM
Cc1n[nH]c(C)c1-c1ccc(NC(=O)[C@@H](NC(=O)c2ccnn2C(C)C)C2c3c(F)cc(F)cc3OCC23CC3)cn1 (some centres unmarked) [Compound 59],IC50,[1],1480 nM
same,IC50,[2],222 nM
Cc1nonc1C(=O)N[C@H](C(=O)Nc1ccc(-c2c(C)n[nH]c2C)cc1)C1c2cc(F)cc(F)c2OCC12CC2 (some centres unmarked) [Compound 69],IC50,[1],941 nM
same,IC50,[2],288 nM
CCc1nonc1C(=O)N[C@H](C(=O)Nc1ccc(-c2c(C)n[nH]c2C)nc1)C1c2cc(F)ccc2OCC12CC2 (some centres unmarked) [Compound 23],IC50,[1],1050 nM
same,IC50,[2],98 nM
COC(=O)N[C@H](C(=O)Nc1ccc(-c2c(C)n[nH]c2C)cc1)C1c2cc(F)c(F)cc2OCC12CC2 (some centres unmarked) [Compound 107],IC50,[1],383 nM
same,IC50,[2],51 nM
Cc1n[nH]c(C)c1-c1ccc(NC(=O)[C@@H](NC(=O)c2ccnn2C)C2c3ccc(F)cc3CC23CC3)cc1 (some centres unmarked) [Compound 16],IC50,[1],55 nM
same,IC50,[2],43 nM
Cc1n[nH]c(C)c1-c1ccc(NC(=O)[C@@H](NC(=O)c2ccnn2C)C2c3ccc(F)cc3OCC23CC3)cc1 (some centres unmarked) [Compound 17],IC50,[1],68 nM
same,IC50,[2],36 nM
Cc1n[nH]c(C)c1-c1ncc(NC(=O)[C@@H](NC(=O)c2ccnn2C)C2c3ccc(F)cc3CC23CC3)cc1F (some centres unmarked) [Compound 30],IC50,[1],229 nM
same,IC50,[2],65 nM
Cc1n[nH]c(C)c1-c1ncc(NC(=O)[C@@H](NC(=O)c2ccnn2C(C)C)C2c3c(F)cc(F)cc3OCC23CC3)cc1F (some centres unmarked) [Compound 60],IC50,[1],279 nM
same,IC50,[2],193 nM
Cc1n[nH]c(C)c1-c1ncc(NC(=O)[C@@H](NC(=O)c2ccnn2C(C)C)C2c3cc(F)c(F)cc3OCC23CC3)cc1F (some centres unmarked) [Compound 47],Kd,[3],0.00169 nM
same,ka,[3]; SPR,20400 M⁻¹ s⁻¹
same,kd,[3]; SPR,3.44e-08 s⁻¹
same,"binding to hIL-17A (SPR, in words)",[3]; [5],strong binding to hIL-17A and were much stronger than the positive compound
same,"maintenance of binding to and inhibition of hIL-17A protein (jump dilution, in words)",[4]; [5],able to maintain binding to and inhibit the activity of hIL-17A protein for a long time
same,"50% enzyme activity retention time, Value on hIL-17A/RA (10X cpds)","[4]; jump dilution, 10X cpds",>28 h
same,IC50,[1],172 nM
same,IC50,[2],88 nM
Cc1n[nH]c(C)c1-c1ccc(NC(=O)[C@@H](NC(=O)OC2CC2)C2c3cc(F)c(F)cc3OCC23CC3)cc1 (some centres unmarked) [Compound 106],IC50,[1],119 nM
same,IC50,[2],66 nM
Cc1n[nH]c(C)c1-c1ccc(NC(=O)[C@@H](NC(=O)c2ccnn2C)C2c3ccccc3OCC23CC3)cc1 (some centres unmarked) [Compound 3],IC50,[1],213 nM
same,IC50,[2],40 nM
Cc1n[nH]c(C)c1-c1ncc(NC(=O)[C@@H](NC(=O)c2nonc2C2CC2)C2c3cc(F)c(F)cc3OCC23CC3)cc1F (some centres unmarked) [Compound 92],IC50,[1],9650 nM
same,IC50,[2],187 nM
Cc1n[nH]c(C)c1-c1ncc(NC(=O)[C@@H](NC(=O)c2nonc2C(C)C)C2c3ccc(F)c(F)c3OCC23CC3)cc1F (some centres unmarked) [Compound 64],IC50,[1],335 nM
same,IC50,[2],154 nM
Cc1n[nH]c(C)c1-c1ccc(NC(=O)[C@@H](NC(=O)c2nonc2C(C)C)C2c3ccc(F)cc3OCC23CC3)cc1F (some centres unmarked) [Compound 40],IC50,[1],115 nM
same,IC50,[2],186 nM
